Measurements as given in patent US12503446B2, “Bromodomain inhibitors” (FORSCHUNGSZENTRUM JÜLICH GMBH, priority 2019, dated 2025).

Columns and labels:
[1] = tested on: erythroleukaemia cell line HEL (JAK2V617F-positive); test: MTT assay, metabolic activity of HEL cells; assay type: cell-based; details: 1 μM, 72 h, DMSO control set to 100%
Method: (§1) All studies with the HEL, Molm-14 and K562 cell lines mentioned (sourced from DSMZ: ACC-11, ACC-10 and ACC-777) were conducted under germ-free conditions under a sterile hood. Incubation was effected at 37° C. in an incubator at a CO2 saturation of 5%. For the passage of the suspension cells, the cells were transferred in a Falcon prefilled with PBS (phosphate buffered saline) and centrifuged at 1200 rpm for 5 min. All three cell lines were cultured in RPMI-1640 medium (Gibco, Thermo Fischer Scientific, Darmstadt, Germany) with 10% FCS and 1% penicillin streptomycin.
(§2) The viability and metabolic activity of the cells were measured by the MTT assay. Yellow, water-soluble MTT (3-([…])-2,5-diphenyltetrazolium bromide) is a tetrazolium salt which is reduced to dark blue formazan in living cells. Insoluble formazan is released by addition of isopropanol-HCl, and its intensity can be determined by photometry at a wavelength of 550 nm. Thus, the proportion of living cells is measured by comparison with a particular control sample. The cells were counted and washed with PBS, and 30 000 cells per well were sown in triplicates in a 96-well plate. For the inhibitor treatment, the stated final concentrations were used. For this purpose, 10 µl of the appropriate inhibitor dilution was introduced into the 96-well plates, and then 90 μl of cell suspension was pipetted in. The plates were incubated in an incubator for 72 h (37° C., 5% CO2). After the incubation, 10 μl of MTT solution (5 mg/ml) was applied to the wells with a multichannel pipette and thoroughly resuspended. This was followed by incubation for 4 h in the dark at room temperature. Subsequently, the cells were resuspended in 100 μl of isopropanol-HCl and lysed, and absorption at a wavelength of 550 nm was measured by photometry with a plate reader (Kayto, RT-2100C).
The erythroleukaemia cell line HEL (JAK2V617F-positive), the AML cell line Molm-14 and the chronic myeloid leukaemia (CML) cell line K562 (BCR-ABL-positive) were used for cell experiments.
Compounds MF1-R, MF1-S, JHS1-R and JHS1-S were dissolved in DMSO, and each was used in concentrations of 0.1 μM, 1 μM, 10 μM and 20 μM. Correspondingly, DMSO was included in each case as a control treatment, and the metabolic activity thereof was set to 100%. The HEL, Molm-14 and K562 cell lines were treated with the respective compounds in the different concentrations and, after 72 h in culture, the metabolic activity, which gives information about the growth of the cells, was determined by means of MTT [3-(4,5-dimethylthiazol-2-yl)-2,5-diphenyltetrazolium bromide] assay.

Molm-14 cells [2] = test: Proliferation assay, cell count after trypan blue staining, Molm-14; assay type: cell-based; details: 1 or 5 μM, 24-72 h, by comparison with PFI-1
Method: (§3) Cell count and viability was determined after trypan blue staining. The appropriate concentrations of the inhibitors per ml of medium were added, or the correspondingly highest volume of DMSO was added as control group.
The cell growth described here is referred to as proliferation, and gives information as to the cell divisions that proceeded in the specified period.

HEL cells = test: Cell cycle analysis (propidium iodide, flow cytometry), HEL; assay type: cell-based; details: compared to PFI-1
Method: (§4) The influence of the inhibitors used on the cell cycle was examined by means of propidium iodide staining of the fixed cells. For this purpose, the cells were fixed with 95% ethanol at −20° C., RNA was destroyed by RNase (100 μg/ml) at 37° C. for […], and the DNA was stained by means of propidium iodide (50 μg/ml). Using a flow cytometer (Gallios (Beckman Coulter, Krefeld, Germany)), the cell cycle phases were analysed, and the data were evaluated by means of FlowJo Software (Version 10).
(§5) During the proliferation, the cells go through different stages of the cell cycle in which genomic DNA is replicated, the cell nucleus is broken down and cell division takes place, resulting in two identical cells.

Molm-14 cells [3] = test: Cell cycle analysis (propidium iodide, flow cytometry), Molm-14; assay type: cell-based; details: compared to PFI-1
Method: as §4, §5

Molm-14 cells [4] = test: Viability from trypan blue staining, Molm-14; assay type: cell-based; details: 5 μM, compared to PFI-1
Method: as §3
During the study of cell proliferation, the viability of the cell lines was likewise determined from the trypan blue staining. Trypan blue cannot penetrate into living cells.

[5] = tested on: mononuclear cells from AML patients; test: CFU assay, AML patients; assay type: cell-based, human
Method: (§6) With the aid of the CFU assay, it is possible to determine the colony-forming capacity of individual cells in a semisolid methylcellulose medium (MethoCult H4434, StemCell Technologies, Cologne, Germany). The number of colonies was determined after 7-11 days.
Mononuclear cells from the bone marrow from AML patients: 7×10^5 cells/ml
Vital sterile mononuclear bone marrow cells from AML patients were cultured for 24 h in 1.5 ml of BIT Medium in 8.5 ml of IMDM medium (to which had been added 5 μl of FLT3 ligand, 10 μl of rh SCF, 2 μl of rh IL-3, 2 μl of rh G-CSF, 50 μl of ciprofloxacin and 6.99 μl of β-mercaptoethanol in 1:100 dilution), before they were used in the CFU assay.
(§7) Individual cells in the CFU assay form cell colonies in culture after 12 days, unless the formation thereof is prevented by inhibitors.

[6] = tested on: mononuclear cells from MPN patients (JAK2V617F-positive); test: CFU assay, MPN patients (PV, PMF, ET); assay type: cell-based, human
Method: as §6
PBMCs from PV, ET or PMF patients: 4×10^5 cells/ml
as §7
Myeloproliferative neoplasia includes three conventional Philadelphia chromosome-negative (BCR-ABL-negative) disease entities: polycythemia vera (PV), essential thrombocythaemia (ET) and primary myelofibrosis (PMF). Both PV and ET can progress to become myelofibrosis (MF), which usually means a fatal deterioration in the disease state and in the success of treatment. All the MPN patients involved in these studies were JAK2V617F-positive.

BRD4 = test: Thermal shift assay (BromoMELT assay), BRD4; assay type: binding; details: 10 μM, duplicates, versus DMSO control
Method: The experiment was conducted in duplicates at a concentration of 10 μM.

[7] = tested on: haematopoietic cell lines, erythroleukaemia and AML cell lines; test: Inhibitory activity in haematopoietic cell lines (summary statements); assay type: cell-based
Method: as §1, §2

Compound: CN1Cc2cc(N=[S@@](C)(=O)c3ccccc3)ccc2NC1=O [MF2-S, (S)—N-(3-methyl-2-oxo-1,2,3,4-tetrahydroquinazolin-6-yl)-S-methyl-S-phenylsulfoximine]
- metabolic activity of HEL cells [1]: 37.24%±6.19
- cell proliferation (cell count) of Molm-14 (Molm-14 cells [2]): significantly reduced the cell proliferation
- subG1 phase (percentage of dead cells), HEL (HEL cells): significantly higher proportions
- synthesis phase (S phase) of cell cycle, HEL (HEL cells): more significantly inhibited by MF2-S than by PFI-1
- subG1 phase (percentage of dead cells), Molm-14 (Molm-14 cells [3]): significantly higher proportions
- synthesis phase (S phase) of cell cycle, Molm-14 (Molm-14 cells [3]): more significantly inhibited by MF2-S than by PFI-1
- viability of Molm-14 cells (Molm-14 cells [4]): significantly reduced the viability
- colony count, AML patients, 1 μM versus 5 μM PFI-1 ([5]; 1 μM): just as efficient as 5 μM PFI-1
- colony count, AML patients ([5]; 1 μM and 5 μM, compared to PFI-1 at same concentration): reduced the colony count to a significantly greater degree than PFI-1
- colony count, PMF patient ([6]; 1 μM): very efficiently reduced the colony count
- colony count, MPN patients ([6]; 5 μM, compared to PFI-1): significantly greater reduction in each case in the colony count
- binding / specificity for BRD4 (ΔTm, in words) (BRD4): more specific binding of BRD4
- inhibitory activity in haematopoietic / leukaemia cell lines (in words) [7]: excellent inhibition of the cell proliferation
